Assay results taken from patent US11510869B2, “Medical devices including medicaments and methods of making and using same including enhancing comfort, enhancing drug penetration, and treatment of myopia” (priority 2010, dated 2022).
Entries after “also recorded” stand apart in the source; their conditions may differ. Like-named read-outs stand apart in the source and are kept apart here.

Assays:
myopia progression = details: cited from earlier work; for Control of myopia progression / Side effects: 0.01% atropine eye drops
[1] = at therapeutic doses; cited from earlier work
[2] = Ink testing of HA loaded ink; type: physicochemical
Procedure: Required amount of HA was directly added in an ink, followed by sonication for 15 minutes, thus providing HA in a polymer matrix.
In case of HA, which was HEMA monomer ink insoluble, its particulate form (without processing) is loaded in ink along with Tween 20, followed by sonication for 5 to 60 minutes.
The following table provides results of ink testing.

[3] = HA loaded ink, direct HA loading, 2% drug loading

In the case of `CN1[C@@H]2CC[C@H]1C[C@@H](OC(=O)C(CO)c1ccccc1)C2` (stereo partly drawn) [Atropine], the “Control of myopia progression” value (myopia progression) is given as “effective in reducing the progression of myopia”, the Side effects (myopia progression) is given as “cycloplegia; also recorded: Photophobia; also recorded: elevation of intraocular pressures; also recorded: Risk of angle closure glaucoma” and the “Control of myopia progression” value (myopia progression; listed as atropine) is given as “ability to control the progress of myopia; also recorded: effective in controlling myopia progression”. For the same molecule, the Side effects (myopia progression; listed as atropine) was “limited side effects; also recorded: minimal side effects”, the “Effect of discontinuation of atropine treatment” value (myopia progression; in some cases) was “rebound of myopia progression” and the Progression of myopia (myopia progression; low dose atropine drops in combination with multifocal glasses) was “slow the progression of myopia”.

In the case of `CCNC(=O)CCC/C=C\C[C@@H]1[C@@H](/C=C/[C@@H](O)CCc2ccccc2)[C@H](O)C[C@@H]1O` [Bimatoprost], the “Systemic or local toxicity” value [1] is given as “minimal systemic or local toxicity”.

For Hyaluronic Acid [Hyaluronic Acid (HA)], the “EST (mN/m)” value [2, 3] was 36.03 mN/m, the “Particle/globule size (nm)” value [2, 3] was 1227 nm and the “Viscosity (c.p.)” value [2, 3] was 12.6 c.p. For the same molecule, the pH [2, 3] was 6 and the “Solubility in HEMA monomer ink” value ([2]; HEMA monomer ink) was “insoluble”.
